Test results from ChEMBL document CHEMBL1149399, “Dual inhibitors of thymidylate synthase and dihydrofolate reductase as antitumor agents: design, synthesis, and biological evaluation of classical and nonclassical pyrrolo[2,3-d]pyrimidine antifolates(1)” (J Med Chem, 2006).
One block for each molecule: values may come before it.

What was measured:
[1] = target: T1, Dihydrofolate reductase (Homo sapiens) (UniProt P00374); experiment: Inhibition of recombinant human DHFR at >32 uM
T1 sequence (whole entry): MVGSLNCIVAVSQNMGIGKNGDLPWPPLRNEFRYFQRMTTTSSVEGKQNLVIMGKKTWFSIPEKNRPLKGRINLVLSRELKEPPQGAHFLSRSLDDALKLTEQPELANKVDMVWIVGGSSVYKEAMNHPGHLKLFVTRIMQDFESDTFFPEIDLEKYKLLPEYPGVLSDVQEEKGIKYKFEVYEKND

Thymidylate synthase [2] = target: T2, Thymidylate synthase (Homo sapiens, UniProt P04818)
Target sequence in this assay (P04818 whole entry): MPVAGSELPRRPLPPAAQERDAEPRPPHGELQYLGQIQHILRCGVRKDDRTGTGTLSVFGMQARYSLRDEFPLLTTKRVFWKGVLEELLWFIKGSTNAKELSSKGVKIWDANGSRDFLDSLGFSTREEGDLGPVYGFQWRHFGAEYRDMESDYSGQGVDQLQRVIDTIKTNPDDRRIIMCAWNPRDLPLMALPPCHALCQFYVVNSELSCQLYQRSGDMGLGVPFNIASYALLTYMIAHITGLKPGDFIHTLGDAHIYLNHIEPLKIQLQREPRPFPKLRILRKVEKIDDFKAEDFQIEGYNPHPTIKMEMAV

[3] = target: Thymidylate synthase (Escherichia coli) (UniProt C3SWJ7); experiment: Inhibition of TS from Escherichia coli at >2.7*10-5 nM
Chain of Thymidylate synthase (Escherichia coli) (C3SWJ7 1-264): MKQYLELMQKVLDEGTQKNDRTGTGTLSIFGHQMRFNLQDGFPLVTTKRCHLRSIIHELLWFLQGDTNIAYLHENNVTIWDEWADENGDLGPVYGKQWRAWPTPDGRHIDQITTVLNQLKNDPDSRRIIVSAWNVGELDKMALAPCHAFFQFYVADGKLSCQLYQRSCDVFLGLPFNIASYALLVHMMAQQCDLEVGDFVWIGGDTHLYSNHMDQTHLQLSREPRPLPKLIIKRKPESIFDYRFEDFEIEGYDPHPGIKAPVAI

[4] = target: Thymidylate synthase (Escherichia coli) (UniProt C3SWJ7); experiment: Inhibition of TS from Escherichia coli at >2.3*10-5 nM
[5] = target: Thymidylate synthase (Escherichia coli) (UniProt C3SWJ7); experiment: Inhibition of TS from Escherichia coli at >2.6*10-5 nM
[6] = target: T1, Dihydrofolate reductase (Homo sapiens); experiment: Inhibition of recombinant human DHFR at >31 uM
[7] = target: Thymidylate synthase (Escherichia coli) (UniProt C3SWJ7); experiment: Inhibition of TS from Escherichia coli at >3.2*10-5 nM
Thymidylate synthase [8] = target: T2, Thymidylate synthase; experiment: Inhibition of recombinant human TS at >3.2*10-5 nM
Target sequence in this assay (P04818 2-313 limits assumed): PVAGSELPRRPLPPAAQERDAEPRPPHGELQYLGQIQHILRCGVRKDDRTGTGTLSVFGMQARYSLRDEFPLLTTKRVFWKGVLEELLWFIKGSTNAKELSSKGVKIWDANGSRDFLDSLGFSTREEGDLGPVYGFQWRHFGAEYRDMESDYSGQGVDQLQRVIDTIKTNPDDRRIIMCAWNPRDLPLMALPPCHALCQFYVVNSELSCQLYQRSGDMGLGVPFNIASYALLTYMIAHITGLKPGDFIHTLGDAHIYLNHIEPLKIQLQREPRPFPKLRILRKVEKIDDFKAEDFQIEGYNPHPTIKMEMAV

CCRF-CEM [9] = experiment: Inhibition of growth in MTX-resistant CCRF-CEM cell line, R30dm cells; type: functional, cell-based; conditions: Homo sapiens
[10] = Inhibition of DHFR from Escherichia coli
CCRF-CEM [11] = experiment: Inhibition of growth in CCRF-CEM cells; type: functional, cell-based; conditions: Homo sapiens
CCRF-CEM [12] = experiment: Protection against growth of CCRF-CEM cells in presence of 10 uM Hypoxanthine, relative to control; type: functional, Homo sapiens
R2-CCRF-CEM = experiment: Inhibition of growth in MTX-resistant CCRF-CEM cell line, R2 cells; type: functional, cell-based; conditions: Homo sapiens
CCRF-CEM [13] = experiment: Protection against growth of CCRF-CEM cells in presence of 10 uM Hypoxanthine and 10 uM Deoxycytidine, relative to control; type: functional, Homo sapiens
CCRF-CEM [14] = experiment: Protection against growth of CCRF-CEM cells in presence of 5 uM Thymidine, relative to control; type: functional, Homo sapiens
CCRF-CEM [15] = experiment: Protection against growth of CCRF-CEM cells in presence of 5 uM Thymidine, 10 uM Deoxycytidine and 10 uM Hypoxanthine, relative to control; type: functional, Homo sapiens
CCRF-CEM [16] = experiment: Protection against growth of CCRF-CEM cells in presence of 10 uM Deoxycytidine, relative to control; type: functional, Homo sapiens
CCRF-CEM [17] = experiment: Protection against growth of CCRF-CEM cells in presence of 5 uM Thymidine and 10 uM Deoxycytidine, relative to control; type: functional, Homo sapiens
R1-CCRF-CEM = experiment: Inhibition of growth in MTX-resistant CCRF-CEM cell line, R1 cells; type: functional, cell-based; conditions: Homo sapiens
CCRF-CEM [18] = experiment: Protection against growth inhibition of CCRF-CEM cells in presence of 0.1 uM of Leucovorin at concentrations that inhibited the growth by […]%; type: functional, Homo sapiens; set-up: scale not given: the % may be the effect or the level left
[19] = target: Thymidylate synthase (Escherichia coli) (UniProt C3SWJ7); experiment: Inhibition of TS from Escherichia coli at >3.0*10-5 nM
[20] = target: Thymidylate synthase (Escherichia coli) (UniProt C3SWJ7); experiment: Inhibition of TS from Escherichia coli at >2.2*10-5 nM
[21] = target: T1, Dihydrofolate reductase (Homo sapiens); experiment: Inhibition of recombinant human DHFR at >26 uM
Thymidylate synthase [22] = target: Thymidylate synthase (Escherichia coli, UniProt C3SWJ7); experiment: Inhibition of TS from Escherichia coli
Chain of Thymidylate synthase (Escherichia coli, UniProt C3SWJ7) (C3SWJ7 whole entry): as the sequence (C3SWJ7 1-264) above

[23] = target: T1, Dihydrofolate reductase (Homo sapiens); experiment: Inhibition of recombinant human DHFR at >29 uM
Dihydrofolate reductase = target: T3, Dihydrofolate reductase (Homo sapiens, UniProt P00374)
T3 sequence (P00374 whole entry): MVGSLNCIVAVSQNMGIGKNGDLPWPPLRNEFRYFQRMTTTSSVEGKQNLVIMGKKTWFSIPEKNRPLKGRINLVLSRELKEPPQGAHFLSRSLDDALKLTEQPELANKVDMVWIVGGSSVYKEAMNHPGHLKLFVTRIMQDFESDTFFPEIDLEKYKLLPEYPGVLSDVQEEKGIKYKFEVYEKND

CCRF-CEM [24] = experiment: Protection against growth inhibition of CCRF-CEM cells in presence of 10 uM of Leucovorin at concentrations that inhibited the growth by 95%; type: functional, Homo sapiens; set-up: scale not given: the % may be the effect or the level left
[25] = target: Thymidylate synthase (Escherichia coli) (UniProt C3SWJ7); experiment: Inhibition of TS from Escherichia coli at >2.0*10-5 nM
Thymidylate synthase [26] = target: T2, Thymidylate synthase; experiment: Inhibition of recombinant human TS at >2.2*10-5 nM
Target sequence in this assay (P04818 2-313 limits assumed): as the sequence (P04818 2-313 limits assumed) above

[27] = target: Thymidylate synthase (Escherichia coli) (UniProt C3SWJ7); experiment: Inhibition of TS from Escherichia coli at >3.1*10-5 nM
Thymidylate synthase [28] = target: T2, Thymidylate synthase; experiment: Inhibition of recombinant human TS at >3.1*10-5 nM
Target sequence in this assay (P04818 2-313 limits assumed): as above

[29] = substrate: CCc1[nH]c2nc(N)nc(O)c2c1Sc1ccc(C(=O)N[C@@H](CCC(=O)O)C(=O)O)cc1; experiment: Binding with human cytosolic FPGS at <= 100 uM

Molecule: CCc1[nH]c2nc(N)nc(O)c2c1Sc1c(C)cccc1C
inhibition [5]: 0% | inhibition [6]: 0%

Molecule: CCc1[nH]c2nc(N)nc(O)c2c1Sc1ccc(OC)cc1
inhibition [7]: 22% | IC50 (Thymidylate synthase [2]): 16000 nM

Molecule: Cc1[nH]c2nc(N)[nH]c(=O)c2c1Sc1ccc(C(=O)N[C@@H](CCC(=O)O)C(=O)O)cc1
EC50 (CCRF-CEM [9]): 810 nM | IC50 [10]: 21 µM | EC50 (CCRF-CEM [11]): 450 nM

Molecule: CN(Cc1cnc2nc(N)nc(N)c2n1)c1ccc(C(=O)N[C@@H](CCC(=O)O)C(=O)O)cc1 [METHOTREXATE]
Activity (CCRF-CEM [12]): 101% | EC50 (R2-CCRF-CEM): 1.7 µM | Activity (CCRF-CEM [13]): 11% | Activity (CCRF-CEM [14]): 44% | Activity (CCRF-CEM [15]): 99% | Activity (CCRF-CEM [16]): 10% | Activity (CCRF-CEM [17]): 10% | EC50 (R1-CCRF-CEM): 0.565 µM | Activity (CCRF-CEM [18]): 10%

Molecule: CCc1[nH]c2nc(N)nc(O)c2c1Sc1ccc2ccccc2c1
IC50 (Thymidylate synthase [2]): 5600 nM

Molecule: CCc1[nH]c2nc(N)nc(O)c2c1Sc1cccc2ccccc12
inhibition [19]: 15%

Molecule: CCc1[nH]c2nc(N)[nH]c(=O)c2c1Sc1ccc(Cl)c(Cl)c1
IC50 (Thymidylate synthase [2]): 230 nM

Molecule: CCc1[nH]c2nc(N)nc(O)c2c1Sc1ccc([N+](=O)[O-])cc1
IC50 (Thymidylate synthase [22]): 24 µM | inhibition [23]: 33% | IC50 (Thymidylate synthase [2]): 240 nM

Molecule: CCc1[nH]c2nc(N)[nH]c(=O)c2c1Sc1c(C)cccc1C
IC50 (Thymidylate synthase [2]): 26000 nM

Molecule: CCc1[nH]c2nc(N)nc(O)c2c1Sc1ccc(C(=O)N[C@@H](CCC(=O)O)C(=O)O)cc1
IC50 (Thymidylate synthase [22]): 0.54 µM | IC50 (Dihydrofolate reductase): 420 nM | Activity (CCRF-CEM [24]): 75% | Activity (CCRF-CEM [12]): 16% | EC50 (R2-CCRF-CEM): 12.5 µM | Activity (CCRF-CEM [13]): 16% | EC50 (CCRF-CEM [9]): 2900 nM | IC50 [10]: > 21 µM | IC50 (Thymidylate synthase [2]): 90 nM | Activity (CCRF-CEM [14]): 106% | Activity (CCRF-CEM [15]): 105% | EC50 (CCRF-CEM [11]): 2700 nM | Activity (CCRF-CEM [16]): 18% | Activity (CCRF-CEM [17]): 106% | EC50 (R1-CCRF-CEM): 7.05 µM | Activity (CCRF-CEM [18]): 95%

Molecule: CCc1[nH]c2nc(N)nc(O)c2c1Sc1cc(C(F)(F)F)cc(C(F)(F)F)c1
inhibition [25]: 0% | inhibition (Thymidylate synthase [26]): 18%

Molecule: CCc1[nH]c2nc(N)[nH]c(=O)c2c1Sc1cccc2ccccc12
IC50 (Thymidylate synthase [2]): 5600 nM

B1: Folylpolyglutamate synthase, mitochondrial (Homo sapiens), Q05932 (protein)
chain: MSRARSHLRAALFLAAASARGITTQVAARRGLSAWPVPQEPSMEYQDAVRMLNTLQTNAGYLEQVKRQRGDPQTQLEAMELYLARSGLQVEDLDRLNIIHVTGTKGKGSTCAFTECILRSYGLKTGFFSSPHLVQVRERIRINGQPISPELFTKYFWRLYHRLEETKDGSCVSMPPYFRFLTLMAFHVFLQEKVDLAVVEVGIGGAYDCTNIIRKPVVCGVSSLGIDHTSLLGDTVEKIAWQKGGIFKQGVPAFTVLQPEGPLAVLRDRAQQISCPLYLCPMLEALEEGGPPLTLGLEGEHQRSNAALALQLAHCWLQRQDRHGAGEPKASRPGLLWQLPLAPVFQPTSHMRLGLRNTEWPGRTQVLRRGPLTWYLDGAHTASSAQACVRWFRQALQGRERPSGGPEVRVLLFNATGDRDPAALLKLLQPCQFDYAVFCPNLTEVSSTGNADQQNFTVTLDQVLLRCLEHQQHWNHLDEEQASPDLWSAPSPEPGGSASLLLAPHPPHTCSASSLVFSCISHALQWISQGRDPIFQPPSPPKGLLTHPVAHSGASILREAAAIHVLVTGSLHLVGGVLKLLEPALSQ
Km [29]: Not Active

Results, then the molecule that gave them:

inhibition [1]: 0% | IC50 (Thymidylate synthase [2]): 2700 nM | inhibition [3]: 0%
Molecule: CCc1[nH]c2nc(N)nc(O)c2c1Sc1ccc(F)cc1

inhibition [4]: 10% | IC50 (Thymidylate synthase [2]): 1100 nM
Molecule: CCc1[nH]c2nc(N)nc(O)c2c1Sc1cccc(Br)c1

inhibition [7]: 5% | inhibition (Thymidylate synthase [8]): 15%
Molecule: CCc1[nH]c2nc(N)nc(O)c2c1Sc1cccc(OC)c1

inhibition [5]: 13% | IC50 (Thymidylate synthase [2]): 2600 nM | inhibition [6]: 0%
Molecule: CCc1[nH]c2nc(N)nc(O)c2c1Sc1cccc(Cl)c1

inhibition [4]: 41%
Molecule: CCc1[nH]c2nc(N)nc(O)c2c1Sc1ccc(Cl)c(Cl)c1

inhibition [20]: 15% | IC50 (Thymidylate synthase [2]): 1000 nM | inhibition [21]: 14%
Molecule: CCc1[nH]c2nc(N)nc(O)c2c1Sc1ccc(Br)cc1

inhibition [27]: 27% | inhibition (Thymidylate synthase [28]): 25%
Molecule: CCc1[nH]c2nc(N)nc(O)c2c1Sc1ccc(Cl)cc1
